Consider 13 compounds from patent publication US20210261512A1, “NOVEL COMPOUNDS” (INFLAZOME LIMITED, priority 2018, published 2021).

Series [1] concerns the target T1, NLRP3 (Homo sapiens, UniProt Q96P20). The series can be described thus: THP-1 cells pyroptosis assay. Further details: Seed THP-1 cells (25,000 cells/well) containing 1.0 μg/ml LPS; host or cells: THP-1. Particulars: LPS 1.0 μg/ml, nigericin 5 μM, resazurin readout, 10 μM top dose (Example 2: top dose of 30 μM). Format: cell-based. In a few lines:
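THP-1 cells (25,000/well) primed with 1 μg/ml LPS in serum-free RPMI, treated with compound (8-point dilution, 10 μM top unless stated; 0.1% DMSO) 3 h at 37°C, then nigericin 5 μM 1 h. Viability read by resazurin (100 μM, 1-2 h) fluorescence; IC50 from 4-parameter fit.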
(Alamar Blue is a resazurin reagent that responds to reducing activity.)

A short description of a further series: PK, oral administration. Particulars: male, Sprague Dawley, plasma, rat, 3 mg/kg. The format is in vivo, male Sprague Dawley rats. How it is done: Pharmacokinetic parameters were determined in male Sprague Dawley rats (Vital River Laboratory Animal Technology Co Ltd, Beijing, China, 6-9 weeks old). Animals were maintained under a 12 h light/dark cycle. Animals had free access to food and water, except that orally dosed animals were food deprived overnight prior to the study.
For intravenous administration, compounds were formulated as a solution (in DMSO:water [10:90] or in DMSO:PBS [10:90]) in 2 mL/kg dosing volume and administered via tail vein. For oral administration, compounds were formulated as a solution (in 0.5% methylcellulose in water) in […] dosing volume and administered orally.
Serial blood samples (about 200 μL) were taken from each animal at each of 8 time-points post dose ([…], 0.25, 0.5, 1, 2, 4, 8 and 24 h). Samples were held on ice for no longer than 30 minutes before centrifugation (5,696 rpm (3,000 g) for 15 minutes) for plasma generation. Plasma was frozen on dry ice prior to bioanalysis. PK parameters were generated from LC-MS/MS data using Phoenix WinNonlin 6.3 software.

Series [2] is described as follows: PK, intravenous administration. Format: in vivo. Particulars: rat, plasma, male Sprague Dawley rats, dose about 1 mg/kg; for Vd: read-out: Vdss. The essentials: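 Male Sprague Dawley rats (6-9 weeks); IV dosing via tail vein as solution in DMSO:water or DMSO:PBS (10:90), oral dosing in 0.5% methylcellulose after overnight fasting. Plasma sampled at 8 time-points to 24 h; parameters derived from LC-MS/MS data.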

In the next series the test system is NLRP3 inflammasome. The settings on record: previously characterised weak NLRP3 inhibitors; nonspecific; cited from earlier work.
The target of series [3] is T1, NLRP3. The series can be described thus: Human whole blood IL1β release assay. Format: cell-based. Particulars: LPS 1 μg/ml, nigericin 10 μM, IL-1β AlphaLisa, 10 μM top dose (Example 2: top dose of 30 μM), read-out: HWB IC50. The essentials:
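Healthy-donor heparinised human whole blood with 1 μg/ml LPS, compound (8-point half-log dilution, 10 μM top dose unless stated; 0.1% DMSO vehicle) for 3 h at 37 °C, then nigericin 10 μM final for 1 h. Supernatant IL-1β by AlphaLISA; IC50 from 4-parameter variable-slope fit.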
Background: Alpha assays give light when donor and acceptor beads are brought close together.

T1 sequence (Q96P20 whole entry): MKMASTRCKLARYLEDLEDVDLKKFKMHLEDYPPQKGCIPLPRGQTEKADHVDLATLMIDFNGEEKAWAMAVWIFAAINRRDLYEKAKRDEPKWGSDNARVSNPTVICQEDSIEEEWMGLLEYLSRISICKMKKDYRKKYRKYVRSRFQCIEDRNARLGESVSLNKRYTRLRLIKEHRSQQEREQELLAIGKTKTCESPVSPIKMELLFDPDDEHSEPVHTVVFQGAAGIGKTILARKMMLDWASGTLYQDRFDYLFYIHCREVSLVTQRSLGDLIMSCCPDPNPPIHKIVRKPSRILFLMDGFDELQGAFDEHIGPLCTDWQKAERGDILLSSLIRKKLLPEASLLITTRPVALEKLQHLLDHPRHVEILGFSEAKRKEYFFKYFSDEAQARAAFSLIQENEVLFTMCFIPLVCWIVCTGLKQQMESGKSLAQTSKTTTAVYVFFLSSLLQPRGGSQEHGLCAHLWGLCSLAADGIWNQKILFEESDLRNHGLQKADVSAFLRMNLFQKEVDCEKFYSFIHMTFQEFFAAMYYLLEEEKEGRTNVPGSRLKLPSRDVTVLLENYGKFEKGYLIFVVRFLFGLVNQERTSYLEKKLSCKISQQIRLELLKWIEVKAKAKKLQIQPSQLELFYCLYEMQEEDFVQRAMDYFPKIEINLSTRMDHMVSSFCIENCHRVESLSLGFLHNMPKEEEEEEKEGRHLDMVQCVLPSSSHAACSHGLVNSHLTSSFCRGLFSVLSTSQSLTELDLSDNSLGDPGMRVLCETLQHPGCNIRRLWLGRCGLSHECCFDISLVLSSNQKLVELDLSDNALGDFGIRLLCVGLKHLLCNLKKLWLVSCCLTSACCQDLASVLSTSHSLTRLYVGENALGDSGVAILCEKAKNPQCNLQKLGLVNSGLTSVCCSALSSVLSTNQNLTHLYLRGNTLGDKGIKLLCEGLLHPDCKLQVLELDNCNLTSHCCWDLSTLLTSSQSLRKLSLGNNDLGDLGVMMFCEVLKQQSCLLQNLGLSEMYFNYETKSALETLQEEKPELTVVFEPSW

In the case of `CN(C)Cc1ccc(S(=O)(=O)c2nnc(Nc3c4c(cc5c3CCC5)CCC4)[nH]2)cc1` [Example 43, 5-((4-((dimethylamino)methyl)phenyl)sulfonyl)-N-(1,2,3,5,6,7-hexahydro-s-indacen-4-yl)-4H-1,2,4-triazol-3-amine], the 50% inhibitory concentration (IC50) on NLRP3 [1] was ≤ 1 µM. For the same compound, in the series “PK, oral administration”, the AUC was 878 ng·h/mL, the CL/F was determined as 61.5 mL/min/kg, the peak level (Cmax) was 594 ng/mL and the Tmax worked out at 0.25 h. In addition, in “PK, oral administration”, the bioavailability was determined as 48.6% and the half-life is 1.2 h. Besides, in series [2], the exposure (AUC) was 602 ng·h/mL, the clearance is 28 mL/min/kg, the half-life is 0.7 h and the Vd came to 0.66 L/kg.
For the compound `O=[N+]([O-])C=Cc1ccc2c(c1)OCO2` [3,4-methylenedioxy-β-nitrostyrene], the NLRP3 inhibition entry in the series on NLRP3 inflammasome is given as “limited potency”.
For `CN(C)CC1CCN(S(=O)(=O)c2nnc(Nc3c4c(cc5c3CCC5)CCC4)[nH]2)C1` (stereo not shown) [Example 119, 5-((3-((dimethylamino)methyl)pyrrolidin-1-yl)sulfonyl)-N-(1,2,3,5,6,7-hexahydro-s-indacen-4-yl)-4H-1,2,4-triazol-3-amine], the IC50 on NLRP3 [1] was ≤ 0.5 µM. Besides, in series [2], the AUC turned out to be 162 ng·h/mL, the clearance came to 106 mL/min/kg, the half-life is 2.6 h and the Vd amounted to 10.1 L/kg. Moreover, the IC50 at NLRP3 [3] was ≤ 0.5 µM.
`CNC1CCN(S(=O)(=O)c2nnc(Nc3c4c(cc5c3CCC5)CCC4)[nH]2)CC1` [Example 130, 1-((5-((1,2,3,5,6,7-hexahydro-s-indacen-4-yl)amino)-4H-1,2,4-triazol-3-yl)sulfonyl)-N-methylpiperidin-4-amine]: the half-inhibitory concentration (IC50) at NLRP3 [1] is ≤ 1 µM. Further, in series [2], the exposure (AUC) came to 509 ng·h/mL, the clearance came to 32.8 mL/min/kg, the half-life was 7.8 h and the Vd was 10.6 L/kg. Further, the IC50 on NLRP3 [3] was ≤ 5 µM.
Take `CCN(CC)CCCS(=O)(=O)c1nnc(Nc2c(-c3ccnc(OC)c3)cc(F)cc2C(C)C)[nH]1` [Example 79, 5-((3-(diethylamino)propyl)sulfonyl)-N-(4-fluoro-2-isopropyl-6-(2-methoxypyridin-4-yl)phenyl)-4H-1,2,4-triazol-3-amine]: the IC50 at NLRP3 [1] is ≤ 0.5 µM. Further, in series [2], the AUC is 277 ng·h/mL, the clearance worked out at 60 mL/min/kg, the half-life is 2.57 h and the Vd is 5.03 L/kg. For the same compound, the IC50 on NLRP3 [3] is ≤ 5 µM.
Turning to `CN(C)CCNS(=O)(=O)c1nnc(Nc2c3c(cc4c2CCC4)CCC3)[nH]1` [Example 94, N-(2-(dimethylamino)ethyl)-5-((1,2,3,5,6,7-hexahydro-s-indacen-4-yl)amino)-4H-1,2,4-triazole-3-sulfonamide], at NLRP3 [1], the IC50 is ≤ 1 µM. Moreover, in series [2], the area under the curve (AUC) is 354 ng·h/mL, the clearance came out at 47.1 mL/min/kg, the half-life is 1.3 h and the Vd is 3.21 L/kg. The half-maximal inhibitory concentration (IC50) at NLRP3 [3] was ≤ 1 µM.
For `COc1cc(-c2cc(F)cc(C(C)C)c2Oc2nnc(S(=O)(=O)N3CCC(CN(C)C)C3)[nH]2)ccn1` (stereo not shown) [Example 69, 1-(1-((5-(4-fluoro-2-isopropyl-6-(2-methoxypyridin-4-yl)phenoxy)-4H-1,2,4-triazol-3-yl)sulfonyl)pyrrolidin-3-yl)-N,N-dimethylmethanamine], at NLRP3 [1], the half-maximal inhibitory concentration (IC50) was ≤ 1 µM. Further, in series [2], the AUC came to 267 ng·h/mL, the clearance was determined as 65.5 mL/min/kg, the half-life is 0.71 h and the Vd came out at 1.29 L/kg. In addition, at NLRP3 [3], the IC50 is ≤ 1 µM.
Regarding `CN(C)CCCS(=O)(=O)c1nnc(Nc2c3c(cc4c2CCC4)CCC3)[nH]1` [Example 48, 5-((3-(Dimethylamino)propyl)sulfonyl)-N-(1,2,3,5,6,7-hexahydro-s-indacen-4-yl)-4H-1,2,4-triazol-3-amine], the IC50 against NLRP3 [1] is ≤ 0.5 µM. In series [2], the AUC is 196 ng·h/mL, the clearance turned out to be 85 mL/min/kg, the half-life is 0.8 h and the Vd amounted to 3.69 L/kg. The IC50 at NLRP3 [3] was ≤ 0.5 µM.
`CCN(CC)CCCS(=O)(=O)c1nnc(Nc2c(-c3ccnc(OC)c3)ccc3c2CCC3)[nH]1` [Example 76, 5-((3-(diethylamino)propyl)sulfonyl)-N-(5-(2-methoxypyridin-4-yl)-2,3-dihydro-1H-inden-4-yl)-4H-1,2,4-triazol-3-amine]: on NLRP3 [1], the half-maximal inhibitory concentration (IC50) was ≤ 0.5 µM. In series [2], the AUC was 210 ng·h/mL, the clearance is 79.4 mL/min/kg, the half-life is 0.9 h and the Vd was determined as 2.48 L/kg. Also, the IC50 at NLRP3 [3] was ≤ 5 µM.
As to `COc1cc(-c2cc(F)c3c(c2Nc2nnc(S(=O)(=O)N4CC5(CCN(C)C5)C4)[nH]2)CCC3)ccn1` [Example 299, N-(7-fluoro-5-(2-methoxypyridin-4-yl)-2,3-dihydro-1H-inden-4-yl)-5-((6-methyl-2,6-diazaspiro[3.4]octan-2-yl)sulfonyl)-4H-1,2,4-triazol-3-amine], at NLRP3 [1], the concentration for half-maximal inhibition (IC50) was ≤ 0.5 µM. In series [2], the AUC amounted to 195 ng·h/mL, the clearance worked out at 103 mL/min/kg, the half-life was 1.33 h and the Vd stood at 5.21 L/kg. The IC50 on NLRP3 [3] is ≤ 0.5 µM.
Consider `C[S+](C)[O-]` [dimethyl sulfoxide], for which the NLRP3 inhibition result in the series on NLRP3 inflammasome is listed as “limited potency”.
Regarding `CC(C)c1cc(F)cc(-c2ccncc2)c1Cc1nnc(S(=O)(=O)N2CCC(CN(C)C)C2)[nH]1` (stereo not shown) [Example 153, 1-(1-((5-(4-fluoro-2-isopropyl-6-(pyridin-4-yl)benzyl)-4H-1,2,4-triazol-3-yl)sulfonyl)pyrrolidin-3-yl)-N,N-dimethylmethanamine], the IC50 at NLRP3 [1] was ≤ 0.5 µM. In addition, in series [2], the AUC amounted to 198 ng·h/mL, the clearance came out at 84.1 mL/min/kg, the half-life was 0.36 h and the Vd came to 2.66 L/kg. The half-inhibitory concentration (IC50) at NLRP3 [3] was ≤ 5 µM.
`COc1cc(-c2c(C)cc3c(c2Nc2nnc(S(=O)(=O)N4CCC(N(C)C)CC4)[nH]2)CCC3)ccn1` [Example 216, 1-((5-((5-(2-methoxypyridin-4-yl)-6-methyl-2,3-dihydro-1H-inden-4-yl)amino)-4H-1,2,4-triazol-3-yl)sulfonyl)-N,N-dimethylpiperidin-4-amine]: the IC50 against NLRP3 [1] was ≤ 0.5 µM. Also, in series [2], the exposure (AUC) was determined as 224 ng·h/mL, the clearance was 72.3 mL/min/kg, the half-life was 2.18 h and the Vd amounted to 6.41 L/kg. Besides, the IC50 on NLRP3 [3] was ≤ 1 µM.

Broadly, the IC50 is the midpoint of a concentration-inhibition curve. In general, AUC refers to concentration integrated over time. The low end stands for less exposure, the high end for more exposure. In general, CL/F refers to clearance divided by bioavailability, as obtained after extravascular dosing. Usually Cmax stands for the peak of the concentration-time curve. By Tmax is commonly meant the time at which the peak concentration occurs. Usually bioavailability stands for the share of a dose that reaches the circulation, judged against a reference dose that is usually intravenous. Lower therefore signals little systemic uptake. As usually defined, the half-life is the time in which the quantity being followed falls by half. A higher half-life goes with slow decline. In general, clearance refers to a measure of how efficiently the substance is removed, as volume per time. Read a high clearance as efficient removal.
